Reference: patent publication US10633350B2, “Diphenyl derivatives and uses thereof” (NOVARTIS AG, priority 2017, dated 2020)

Experiments:
Akt = Akt activation assay (Phospho-AKT (Ser473) antibody staining) in U2OS GFP-FoxO3a H212R reporter cells; type: cell-based; details: Homo sapiens, 0.5 h, serum starved overnight, 30 minutes compound treatment, total cellular intensity of Phospho-Akt (Ser473) antibody staining, AC50 = concentration that results in 50% activation or inhibition
Method in brief: (§1)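 Serum-starved (overnight) cells treated with compounds at various doses for 30 min, then fixed in 4% paraformaldehyde and stained overnight at 4 °C for pAkt S473 with Hoechst nuclear counterstain; high-content imaging. FoxO3a readout: nuclear/cytosolic GFP ratio (%); Akt readout: total cellular pAkt intensity (%); DMSO = 0% activity.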

FoxO3a = FoxO3a inhibition assay (GFP-FoxO3a nuclear to cytoplasmic translocation) in U2OS GFP-FoxO3a H212R reporter cells; type: cell-based; details: Homo sapiens, 0.5 h, serum starved overnight, 30 minutes compound treatment, ratio of nuclear to cytosolic GFP intensity, AC50 = concentration that results in 50% activation or inhibition, read-out: FoxO AC50
Method in brief: as §1

SMILES | AC50 (Akt) [nM] | AC50 (FoxO3a) [nM]
Cc1nc(C(N)=O)nn1-c1ccc(Cc2ccc(-c3ccc(CN4CCS(=O)(=O)CC4)cc3)cc2)cc1 [Example 39-32] | 85 | 48
Cc1cc(C(N)=O)nn1-c1ccc(Cc2ccc(-c3ccnc(CN4CCNCC4)c3)cc2)cc1 [Example 31-2] | 1620 | 373
Cc1cc(C(N)=O)nn1-c1ccc(Cc2ccc(C3CCN(C)CC3)cc2)cc1 [Example 4, 5-methyl-1-(4-(4-(1-methylpiperidin-4-yl)benzyl)phenyl)-1H-pyrazole-3-carboxamide] | 1220 | 325
Cc1cc(C(N)=O)nn1-c1ccc(Cc2ccc(-c3ccc(CN4CCN(CCO)CC4)nc3)cc2)cc1 [Example 32, 1-(4-(4-(6-((4-(2-hydroxyethyl)piperazin-1-yl)methyl)pyridin-3-yl)benzyl)phenyl)-5-methyl-1H-pyrazole-3-carboxamide] | 647 | 315
Cc1cc(C(N)=O)nn1-c1ccc(Cc2ccc(-c3ccc(CNCCO)cc3)cc2)cc1 [Example 16-2] | 426 | 138
Cc1cc(C(N)=O)nn1-c1ccc(Cc2ccc(-c3ccc(CN4CCC(N(C)C)CC4)cc3)cc2)cc1 [Example 40, 1-(4-((4′-((4-(dimethylamino)piperidin-1-yl)methyl)-[1,1′-biphenyl]-4-yl)methyl)phenyl)-5-methyl-1H-pyrazole-3-carboxamide] | 146 | 32
Cc1cc(C(N)=O)nn1-c1ccc(C(C)(C)c2ccc(C3=CCC(N4CCOCC4)CC3)cc2)cc1 (stereo not drawn) [Example 8, 5-methyl-1-(4-(2-(4′-morpholino-2′,3′,4′,5′-tetrahydro-[1,1′-biphenyl]-4-yl)propan-2-yl)phenyl)-1H-pyrazole-3-carboxamide] | 377 | 96
Cc1nc(C(N)=O)nn1-c1ccc(Cc2ccc(C#CC3CCN(C)CC3)cc2)cc1 [Example 54, 5-methyl-1-(4-(4-((1-methylpiperidin-4-yl)ethynyl)benzyl)phenyl)-1H-1,2,4-triazole-3-carboxamide] | 528 | 248
Cc1nc(-c2ccc(Cc3ccc(-n4nc(C(N)=O)cc4C)cc3)cc2)ccc1C(C)(C)O [Example 20, 1-(4-(4-(5-(2-hydroxypropan-2-yl)-6-methylpyridin-2-yl)benzyl)phenyl)-5-methyl-1H-pyrazole-3-carboxamide] | 208 | 91
Cc1nc(C(N)=O)nn1-c1ccc(Cc2ccc(-c3ccc(C(=O)NCC(C)(C)O)cc3)cc2)cc1 [Example 51, 1-(4-((4′-((2-hydroxy-2-methylpropyl)carbamoyl)-[1,1′-biphenyl]-4-yl)methyl)phenyl)-5-methyl-1H-1,2,4-triazole-3-carboxamide] | 300 | 102
Cc1nc(C(N)=O)nn1-c1ccc(Cc2ccc(-c3ccc(CN4CCC[C@@H]4CO)cc3)cc2)cc1 [Example 38-5] | 27 | 26
Cc1cc(C(N)=O)nn1-c1ccc(Cc2ccc(C3=CCN(C(=O)CN(C)C)CC3)cc2)cc1 [Example 3-11, 1-(4-(4-(1-(dimethylglycyl)-1,2,3,6-tetrahydropyridin-4-yl)benzyl)phenyl)-5-methyl-1H-pyrazole-3-carboxamide] | 504 | 132
Cc1cc(C(N)=O)nn1-c1ccc(Cc2ccc(-c3ccc(C(=O)N4CCN[C@@H](CO)C4)cc3)cc2)cc1 [Example 28, (R)-1-(4-((4′-(3-(hydroxymethyl)piperazine-1-carbonyl)-[1,1′-biphenyl]-4-yl)methyl)phenyl)-5-methyl-1H-pyrazole-3-carboxamide] | 73 | 26
Cc1nnc(-c2ccc(-c3ccc(Cc4ccc(-n5nc(C(N)=O)cc5C)cc4)cc3)cc2)o1 [Example 3-9, 5-methyl-1-(4-((4′-(5-methyl-1,3,4-oxadiazol-2-yl)-[1,1′-biphenyl]-4-yl)methyl)phenyl)-1H-pyrazole-3-carboxamide] | 63 | 29
Cc1cc(C(N)=O)nn1-c1ccc(Cc2ccc(C3=CCN(C)CC3)cc2)cc1 [Example 3-15, 5-methyl-1-(4-(4-(1-methyl-1,2,3,6-tetrahydropyridin-4-yl)benzyl)phenyl)-1H-pyrazole-3-carboxamide] | 83 | 31
Cc1nc(C(N)=O)nn1-c1ccc(C(C)(C)c2ccc(-c3ccc4ncccc4c3)cc2)cc1 [Example 13-3] | 943 | 311
Cc1cc(C(N)=O)nn1-c1ccc(Cc2ccc(-c3ccc(S(C)(=O)=O)cc3)cc2)cc1 [Example 3-6, 5-methyl-1-(4-((4′-(methylsulfonyl)-[1,1′-biphenyl]-4-yl)methyl)phenyl)-1H-pyrazole-3-carboxamide] | 66 | 28
Cc1cc(C(N)=O)nn1-c1ccc(Cc2ccc(-c3ccc4c(c3)CN(C)C4)cc2)cc1 [Example 3-13, 5-methyl-1-(4-(4-(2-methylisoindolin-5-yl)benzyl)phenyl)-1H-pyrazole-3-carboxamide] | 167 | 57
